Measurements: EP3409761B1, “CULTURE MEDIUM COMPOSITION, AND METHOD FOR CULTURING CELL OR TISSUE USING SAID COMPOSITION” (Nissan Chemical Corporation, priority 2012, dated 2014)

Legend:
Type in all cases: cell-based
[1] = tested on: human cervical cancer cell line HeLa; assay: Comparison with single layer culture method using agent for inducing apoptosis; conditions: day 4
Protocol: This aqueous solution was sterilized at 121°C for 20 min in an autoclave. […] Each plate was cultured by being stood still in a CO2 incubator (37°C, 5% CO2). […] To the culture medium on day 4 was added an ATP reagent (150 µL) (CellTiter-Glo (registered trade mark) Luminescent Cell Viability Assay, manufactured by Promega) to give a suspension, which was stood for about 10 min at room temperature, and the luminescence intensity (RLU value) was measured by FlexStation3 (manufactured by Molecular Devices), and the number of viable cells was measured by subtracting the luminescence value of the medium alone. For WST-8 measurement, a WST-8 solution (manufactured by DOJINDO Laboratories, 15 µL) was added, the mixture was incubated at 37°C for 100 min, the absorbance at 450 nm was measured by an absorbance spectrometer (manufactured by Molecular Devices, SPECTRA MAX 190), and the number of viable cells was measured by subtracting the absorbance of the medium alone.

[2] = tested on: human cervical cancer cell line HeLa; assay: Comparison with single layer culture method in cell proliferation test using anticancer drug; conditions: day 4
Protocol: This aqueous solution was sterilized at 121°C for 20 min in an autoclave. […] Each plate was cultured by being stood still in a CO2 incubator (37°C, 5% CO2). […] The anticancer drug used was Adriamycin (manufactured by WAKO), Paclitaxel (manufactured by WAKO) or Mitomycin C (manufactured by WAKO). To the culture medium on day 4 was added an ATP reagent (150 µL) (CellTiter-Glo (registered trade mark) Luminescent Cell Viability Assay, manufactured by Promega) to give a suspension, which was stood for about 10 min at room temperature, and the luminescence intensity (RLU value) was measured by FlexStation3 (manufactured by Molecular Devices), and the number of viable cells was measured by subtracting the luminescence value of the medium alone. For WST-8 measurement, a WST-8 solution (manufactured by DOJINDO Laboratories, 15 µL) was added, the mixture was incubated at 37°C for 100 min, the absorbance at 450 nm was measured by an absorbance spectrometer (manufactured by Molecular Devices, SPECTRA MAX 190), and the number of viable cells was measured by subtracting the absorbance of the medium alone.

[3] = tested on: human cervical cancer cell line HeLa; assay: Cell proliferation test using various anticancer drugs; conditions: DAG 0.030% medium; for cell density: 5 days later
Protocol: This aqueous solution was sterilized at 121°C for 20 min in an autoclave. […] The anticancer drug used was Adriamycin (manufactured by WAKO), Paclitaxel (manufactured by WAKO) or Mitomycin C (manufactured by WAKO).
Successively, this plate was cultured by being stood still in a CO2 incubator (37°C, 5% CO2) for 7 days. After culturing for 3, 5, 7 days, to the culture medium was added a WST-8 solution (manufactured by DOJINDO Laboratories, 20 µL), and the mixture was incubated at 37°C for 100 min. The absorbance at 450 nm was measured by an absorbance spectrometer (manufactured by Molecular Devices, SPECTRA MAX 190), and the number of viable cells was measured by subtracting the absorbance of the medium alone. The culture medium containing the cells after 5 days of culture was stirred with a pipette and the obtained stirred solution (20 µL) was mixed with Trypan Blue stain 0.4% (manufactured by Invitrogen, 20 µL) and the cell density was measured under a microscope.

[4] = agent 1 µM, deacylated gellan gum addition group (0.015%)
[5] = agent 1 µM, single layer culture group
[6] = agent 10 µM, deacylated gellan gum addition group (0.015%)
[7] = agent 10 µM, single layer culture group
[8] = drug 0.005 µM, deacylated gellan gum addition group (0.015%)
[9] = drug 0.005 µM, single layer culture group
[10] = drug 0.05 µM, deacylated gellan gum addition group (0.015%)
[11] = drug 0.05 µM, single layer culture group
[12] = drug 0.5 µM, deacylated gellan gum addition group (0.015%)
[13] = drug 0.5 µM, single layer culture group
[14] = agent 100 µM, deacylated gellan gum addition group (0.015%)
[15] = agent 100 µM, single layer culture group

COc1cc([C@@H]2c3cc4c(cc3[C@@H](O[C@@H]3O[C@@H]5CO[C@@H](C)O[C@H]5[C@H](O)[C@H]3O)[C@H]3COC(=O)[C@H]23)OCO4)cc(OC)c1O [Etoposide]
% Control value of the RLU value (ATP measurement) [1, 4]: 35 % Control | % Control value of the absorbance at 450 nm (WST-8 measurement) [1, 4]: 39 % Control | % Control value of the RLU value (ATP measurement) [1, 5]: 64 % Control | % Control value of the absorbance at 450 nm (WST-8 measurement) [1, 5]: 68 % Control | % Control value of the RLU value (ATP measurement) [1, 6]: 24 % Control | % Control value of the absorbance at 450 nm (WST-8 measurement) [1, 6]: 23 % Control | % Control value of the RLU value (ATP measurement) [1, 7]: 65 % Control | % Control value of the absorbance at 450 nm (WST-8 measurement) [1, 7]: 63 % Control

CO[C@@]12[C@H](COC(N)=O)C3=C(C(=O)C(C)=C(N)C3=O)N1C[C@@H]1N[C@@H]12 [Mitomycin C]
% Control value of the RLU value (ATP measurement) [2, 8]: 83 % Control | % Control value of the absorbance at 450 nm (WST-8 measurement) [2, 8]: 94 % Control | % Control value of the RLU value (ATP measurement) [2, 9]: 99 % Control | % Control value of the absorbance at 450 nm (WST-8 measurement) [2, 9]: 101 % Control | % Control value of the RLU value (ATP measurement) [2, 10]: 48 % Control | % Control value of the absorbance at 450 nm (WST-8 measurement) [2, 10]: 37 % Control | % Control value of the RLU value (ATP measurement) [2, 11]: 89 % Control | % Control value of the absorbance at 450 nm (WST-8 measurement) [2, 11]: 83 % Control | % Control value of the RLU value (ATP measurement) [2, 12]: 29 % Control | % Control value of the absorbance at 450 nm (WST-8 measurement) [2, 12]: 12 % Control | % Control value of the RLU value (ATP measurement) [2, 13]: 86 % Control | % Control value of the absorbance at 450 nm (WST-8 measurement) [2, 13]: 71 % Control | cell density ([3]; drug 0.01 µM): 1.0 10^4 cells/mL | cell number (absorbance at 450 nm, WST-8) ([3]; drug 0.01 µM, day 3): 0.089 | cell number (absorbance at 450 nm, WST-8) ([3]; drug 0.01 µM, day 5): 0.016 | cell number (absorbance at 450 nm, WST-8) ([3]; drug 0.01 µM, day 7): < 0 | cell density ([3]; drug 0.1 µM): 0.4 10^4 cells/mL | cell number (absorbance at 450 nm, WST-8) ([3]; drug 0.1 µM, day 3): 0.032 | cell number (absorbance at 450 nm, WST-8) ([3]; drug 0.1 µM, day 5): < 0 | cell number (absorbance at 450 nm, WST-8) ([3]; drug 0.1 µM, day 7): < 0 | cell density ([3]; drug 1 µM): 0.1 10^4 cells/mL | cell number (absorbance at 450 nm, WST-8) ([3]; drug 1 µM, day 3): < 0 | cell number (absorbance at 450 nm, WST-8) ([3]; drug 1 µM, day 5): < 0 | cell number (absorbance at 450 nm, WST-8) ([3]; drug 1 µM, day 7): < 0

C[C@@H]1C[C@@H]([C@H](O)CC2CC(=O)NC(=O)C2)C(=O)[C@@H](C)C1 [Cycloheximide]
% Control value of the RLU value (ATP measurement) [1, 6]: 9 % Control | % Control value of the absorbance at 450 nm (WST-8 measurement) [1, 6]: 4 % Control | % Control value of the RLU value (ATP measurement) [1, 7]: 29 % Control | % Control value of the absorbance at 450 nm (WST-8 measurement) [1, 7]: 21 % Control | % Control value of the RLU value (ATP measurement) [1, 14]: 4 % Control | % Control value of the absorbance at 450 nm (WST-8 measurement) [1, 14]: 1 % Control | % Control value of the RLU value (ATP measurement) [1, 15]: 9 % Control | % Control value of the absorbance at 450 nm (WST-8 measurement) [1, 15]: 7 % Control
